Test results taken from patent US7217704B2, “LPA receptor agonists and antagonists and methods of use” (The University of Tennessee Research Foundation, priority 2003, dated 2007).
“Also recorded” adds a separate entry of the source. Like-named read-outs stand apart in the source and are kept apart here.

How the values were obtained:
[1] = target: T1, LPA3 (Homo sapiens, UniProt Q9UBY5); settings: GTPγS loading assay, HEK293T; read-out: reported Ki at LPA3; cited from earlier work
T1 construct: expressed in transfected cells
T1 sequence (Q9UBY5 1-353): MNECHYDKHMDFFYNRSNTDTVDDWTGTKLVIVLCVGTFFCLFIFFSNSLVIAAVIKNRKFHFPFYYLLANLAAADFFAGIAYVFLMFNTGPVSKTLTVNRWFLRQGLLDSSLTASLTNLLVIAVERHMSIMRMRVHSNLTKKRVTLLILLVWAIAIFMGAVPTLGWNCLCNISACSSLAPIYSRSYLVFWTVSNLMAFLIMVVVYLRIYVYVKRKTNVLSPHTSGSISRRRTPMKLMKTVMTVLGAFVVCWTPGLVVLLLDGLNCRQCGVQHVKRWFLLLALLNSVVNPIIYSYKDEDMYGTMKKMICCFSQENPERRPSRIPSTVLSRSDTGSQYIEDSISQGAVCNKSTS

[2] = target: T2, PPARγ (Homo sapiens, UniProt P37231); test: PPARγ activation in CV1 cells, PPRE-Acox-Rluc reporter gene assay; settings: 10 μM test compound, 20 h
T2 sequence (P37231 1-505): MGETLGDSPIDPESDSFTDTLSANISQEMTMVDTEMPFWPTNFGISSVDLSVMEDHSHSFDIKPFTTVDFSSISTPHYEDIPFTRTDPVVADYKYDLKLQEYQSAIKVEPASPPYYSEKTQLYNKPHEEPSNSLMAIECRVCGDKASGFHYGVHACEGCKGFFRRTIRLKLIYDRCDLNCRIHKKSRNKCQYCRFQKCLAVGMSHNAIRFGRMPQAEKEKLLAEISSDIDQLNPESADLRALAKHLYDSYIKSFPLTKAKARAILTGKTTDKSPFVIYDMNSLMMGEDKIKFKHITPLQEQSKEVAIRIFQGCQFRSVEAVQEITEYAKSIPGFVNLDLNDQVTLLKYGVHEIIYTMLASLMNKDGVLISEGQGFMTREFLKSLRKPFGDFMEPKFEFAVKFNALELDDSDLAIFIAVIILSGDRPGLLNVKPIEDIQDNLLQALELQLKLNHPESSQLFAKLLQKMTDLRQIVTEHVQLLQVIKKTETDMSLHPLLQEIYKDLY
Protocol: Comparing the effects with the Rosiglitazone, a known PPARγ agonist, CV1 cells were treated with 1% DMSO or 10 μM of test compound dissolved in DMSO for 20 h. Luciferase and β-galactosidase activities (mean±SEM) were measured in the cell lysate (n=4). *P<0.05 and **P<0.01, significant differences over vehicle control.
The assay of PPARγ activation in CV1 cells was run as reported in Zhang et al. Briefly, CV-1 cells were plated in 96-well plates (5×10^3 cells per well) in Dulbecco's modified Eagle's medium supplemented with 10% fetal bovine serum. […] Samples were run in quadruplicate and the mean±standard errors were calculated. Data are representative of at least two independent transfections. Student's t-test was used for null hypothesis testing and P<0.05 was considered transfection, cells were treated with 1% FBS supplemented OptiMEMI (Invitrogen) containing DMSO or 10 μM test compound dissolved in DMSO for 20 h. Luciferase and β-galactosidase activities were measured with the Steady-Glo® Luciferase Assay significant (in the figures P<0.05 is denoted by * and P<0.01 is **).

[3] = target: T3, LPA1 (Homo sapiens, UniProt Q92633); test: Ca2+ transients (agonism / inhibition of LPA response) in RH7777 cells stably expressing LPA1; format: cell-based; settings: for effect at LPA1 in words: Ca2+ transients
T3 construct: expressed in transfected cells
Protocol: (§1) The culture medium (DMEM containing 10% FBS) was then replaced with modified Krebs solution (120 mM NaCl, 5 mM KCl, 0.62 mM MgSO4, 1.8 mM CaCl2, 10 mM HEPES, 6 mM glucose, pH 7.4) and the cells were serum starved for 6–8 hours (12 h for PC-3 cells). Cells were loaded with Fura-2 AM for 35 minutes in modified Krebs medium. The Fura-2 was removed before loading the plate in the FlexStation instrument by replacing the medium once again with 100 μl modified Krebs medium/well. Plates were incubated for 4 minutes in the instrument to allow for warming to 37° C. Changes in intracellular Ca^2+ concentration were monitored by measuring the ratio of emitted light intensity at 520 nm in response to excitation by 340 nm and 380 nm wavelength lights, respectively. Each well was monitored for 80–120 seconds. […] Time courses were recorded using the SoftMax Pro software (Molecular Devices, Sunnyvale, Calif.). Ca^2+ transients were quantified automatically by calculating the difference between maximum and baseline ratio values for each well.
(§2) Each FAP analog was tested for the ability to induce Ca^2+ transients in RH7777 cells transfected with LPA1-3 receptors (agonism), as well as the ability to inhibit LPAinduced Ca^2+ transients in the same cells (antagonism) (Table 3).

[4] = target: T3, LPA1; settings: GTPγS loading assay, HEK293T; read-out: reported Ki at LPA1; cited from earlier work
[5] = target: T4, LPA2 (Homo sapiens, UniProt Q9HBW0); test: Ca2+ transients (agonism / inhibition of LPA response) in RH7777 cells stably expressing LPA2; format: cell-based; settings: for effect at LPA2 in words: Ca2+ transients
T4 construct: expressed in transfected cells
Protocol: as §1, §2

[6] = tested on: PC-3 cells; test: Ca2+ transients in PC-3 cells endogenously expressing LPA1-3; format: cell-based, human
Protocol: as §1
We tested the FAP analogs in PC-3 cells, which unlike the transfected RH7777 cells endogenously express LPA1-3 receptors.

[7] = target: T1, LPA3; test: Ca2+ transients (agonism / inhibition of LPA response) in RH7777 cells stably expressing LPA3; format: cell-based
Protocol: as §1, §2

[8] = tested on: IEC-6 cells; test: Camptothecin-induced DNA fragmentation (apoptosis) in IEC-6 cells, ELISA; format: cell-based; settings: Camptothecin 20 μM, LPA and FAP12 at 10 μM
Protocol: The experimental procedure utilized was substantially the same as that reported in Deng et al. (2002) and Deng et al., (2003).
Basically, IEC-6 cells were grown in DMEM medium supplemented with 5% fetal bovine serum, insulin (10 μg/ml), gentamycin sulfate (50 μg/ml), and incubated at 37° C. in a humidified 90% air–10% CO2 atmosphere. Medium was changed every other day. Sub-confluent cells were washed twice and replaced by DMEM without serum the night before experiments.
Damage and IEC-6 cell apoptosis was induced via either γ-irradiation or chemotherapy. 20 Gy single dose of [^137Cs] source γ-irradiation was used in all experiments. […] In some experiments, LPA was added at different times before or after irradiation. Treatment with 20 μM camptothecin of IEC-6 cells induces DNA fragmentation as measured by the ELISA assay at 16 h after treatment. DNA fragmentation was quantified using the Cell Death Detection ELISA kit from Boehringer (Indianapolis, Ind.) according to the instructions of the manufacturer. Samples were run in triplicate. A duplicate of the sample was used to quantify protein concentration using the BCA kit from Pierce (Rockford, Ill.). DNA fragmentation was expressed as absorbance units per μg protein per minute.

[9] = tested on: γ-irradiated mice; test: Crypt survival in small intestine after whole body γ-irradiation; format: in vivo; settings: 200 μM into the stomach 2 h prior irradiation, crypts counted 3.5 days after irradiation
Protocol: The experimental procedure utilized was substantially the same as that reported in Deng et al. (2002).
The whole body irradiation (WBI) protocol has been reviewed and approved by the ACUC Committee of the University of Tennessee Health Sciences Center. ICR strain male mice (Harlan Laboratories, body weight 30–33 g) on a 12 h light/dark cycle and otherwise maintained on a standard laboratory chow ad libitum were starved for 16 h prior to treatment. WBI was done with a 12 Gy or 15 Gy dose using Cs137 source at a dose rate of 1.9 Gy per minute. Groups of four mice received either 250 μl of 1 mM LPA complexed with 100 μM BSA dissolved in Hanks basal salt solution or the BSA vehicle alone 2 h prior to irradiation.
For detection of the apoptotic bodies, mice were euthanized with carbon dioxide inhalation 4 h after irradiation and the small intestine was dissected and fixed in neutral phosphate buffered isotonic 10% formalin. Four ˜3- to 4-mm long segments from the small intestine were embedded in paraffin, 5 μm thick sections were cut and stained with hematoxilin and eosin. The number of surviving crypts was counted 3.5 days after irradiation.

T4 sequence (Q9HBW0 whole entry): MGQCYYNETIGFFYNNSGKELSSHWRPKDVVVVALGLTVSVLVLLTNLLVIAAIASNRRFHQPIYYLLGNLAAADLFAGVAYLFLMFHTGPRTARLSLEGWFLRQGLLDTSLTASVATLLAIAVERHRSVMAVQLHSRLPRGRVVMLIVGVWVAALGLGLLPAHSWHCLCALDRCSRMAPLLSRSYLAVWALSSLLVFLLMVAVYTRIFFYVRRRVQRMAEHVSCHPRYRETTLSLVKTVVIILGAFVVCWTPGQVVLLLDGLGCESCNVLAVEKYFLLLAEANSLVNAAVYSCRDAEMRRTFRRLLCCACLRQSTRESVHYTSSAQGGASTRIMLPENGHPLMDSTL
T3 sequence (Q92633 whole entry): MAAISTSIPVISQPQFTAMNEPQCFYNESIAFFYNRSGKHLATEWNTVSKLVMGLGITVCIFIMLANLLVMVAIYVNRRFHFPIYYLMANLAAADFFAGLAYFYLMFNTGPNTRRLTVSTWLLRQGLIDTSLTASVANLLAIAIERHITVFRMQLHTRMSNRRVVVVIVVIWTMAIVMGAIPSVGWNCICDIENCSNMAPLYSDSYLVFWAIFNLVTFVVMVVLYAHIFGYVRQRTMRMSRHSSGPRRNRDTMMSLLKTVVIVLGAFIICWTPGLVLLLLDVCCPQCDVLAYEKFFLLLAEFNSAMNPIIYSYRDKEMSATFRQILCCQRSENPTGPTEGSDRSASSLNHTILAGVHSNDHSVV

For `CCCCCCCC/C=C\CCCCCCCC(=O)N[C@@H](COP(=O)(O)O)Cc1ccc(OCc2ccccc2)cc1` [VPC12249, reference compound], which Ki [1] is on record?
Its Ki is 428 nM.

And the “PPARγ activation (PPRE-Acox-Rluc reporter) in words” value [2]?
The value was “can activate PPRE-Acox-Rluc reporter; also recorded: exception”.

What about the “effect at LPA1 in words” value ([3]; RH7777 cells expressing LPA1) of the same compound?
The value was “weak inhibitor”.

And the EC50 ([3]; induction of Ca2+ transients, RH7777 cells expressing LPA1, read-out: LPA1 EC50)?
The EC50 was > 30000 nM.

And the IC50 ([3]; inhibition of LPA-induced Ca2+ transients, RH7777 cells expressing LPA1, read-out: LPA1 IC50)?
The IC50 was > 10000 nM.

And the Ki [4]?
Its Ki is 137 nM.

And the “effect at LPA2 in words” value ([5]; RH7777 cells expressing LPA2)?
Its value is “did not affect LPA signaling”.

And the EC50 ([5]; induction of Ca2+ transients, RH7777 cells expressing LPA2, read-out: LPA2 EC50)?
Its EC50 is > 30000 nM.

And the IC50 ([5]; inhibition of LPA-induced Ca2+ transients, RH7777 cells expressing LPA2, read-out: LPA2 IC50)?
The IC50 was > 30000 nM.

What about the IC50 ([6]; inhibition of LPA-induced Ca2+ transients, PC-3 cells, read-out: PC-3 IC50) of the same compound?
The IC50 was > 10000 nM.

What about the EC50 ([7]; induction of Ca2+ transients, RH7777 cells expressing LPA3, read-out: LPA3 EC50) of the same compound?
The EC50 was > 30000 nM.

And the Ki ([7]; inhibition of LPA-induced Ca2+ transients, RH7777 cells expressing LPA3, read-out: LPA3 (Ki))?
The Ki was 588 nM.

What about the IC50 ([7]; inhibition of LPA-induced Ca2+ transients, RH7777 cells expressing LPA3, read-out: LPA3 IC50) of the same compound?
The IC50 was 1190 nM.

Which “PPARγ activation (PPRE-Acox-Rluc reporter) in words” value [2] does the source give for `CCCCCCCC/C=C\CCCCCCCC(=O)OC[C@@H](COP(O)(O)=S)OC` [OMPT] here?
The value was “can activate PPRE-Acox-Rluc reporter”.

With `CCCCCCCCC=CCCCCCCCCOP(O)(O)=S` [Compound 8g, Thiophosphoric acid O-octadec-9-enyl ester] as the compound, how does the EC50 [3] read?
The EC50 was 193 nM.

What about the IC50 [3] of the same compound?
Its IC50 is > 30000 nM.

What about the “effect at LPA1 in words” value ([3]; RH7777 cells expressing LPA1) of the same compound?
Its value is “agonist”.

And the Emax ([3]; RH7777, read-out: LPA1 (Emax))?
The Emax was 80%.

What about the “LPA1 (Emax)” value ([3]; maximal efficacy of the drug/maximal efficacy of LPA 18:1) of the same compound?
Its value is 80%.

And the “inhibition of Camptothecin-induced DNA fragmentation in words” value [8]?
The value was “comparable to that of LPA but supersedes it at concentrations above 3 μM; also recorded: dose-dependently inhibit DNA fragmentation”.

What about the EC50 [5] of the same compound?
The EC50 was 244 nM.

What about the IC50 [5] of the same compound?
Its IC50 is > 30000 nM.

What about the “effect at LPA2 in words” value ([5]; RH7777 cells expressing LPA2) of the same compound?
Its value is “agonist”.

What about the “effect in PC-3 cells in words” value ([6]; Ca2+ transients, PC-3 cells) of the same compound?
The value was “no inhibition of LPA response”.

And the Emax ([6]; Homo sapiens, PC-3, read-out: PC-3 (Emax))?
Its Emax is 30%.

What about the “crypt survival in words” value [9] of the same compound?
The value was “enhances crypt survival”.

What about the “crypt survival in words” value ([9]; listed as FAP 18:1 d9) of the same compound?
Its value is “dose-dependent enhancement of crypt survival”.

And the “crypt survival in words” value ([9]; listed as FAP 18:1d9)?
Its value is “significantly (P>0.01) enhanced crypt survival; also recorded: present in the jejunum and ileum and exceeded that of LPA; also recorded: dose-dependent crypt survival in the ileum and jejunum”.

And the EC50 [7]?
Its EC50 is 546 nM.

And the IC50 [7]?
Its IC50 is > 30000 nM.

And the “effect at LPA3 in words” value ([7]; Ca2+ transients, RH7777 cells expressing LPA3)?
Its value is “agonist”.

Which “inhibition of Camptothecin-induced DNA fragmentation in words” value [8] does the source give for lysophosphatidic acid [LPA] here?
The value was “inhibited; also recorded: dose-dependently inhibit DNA fragmentation”.
